Experimental data as given in article PMC8286840, “Identifying SARS-CoV-2 antiviral compounds by screening for small molecule inhibitors of Nsp3 papain-like protease” (Biochemical Journal, 2021).
Where a name gives a salt, the structure may show the parent alone. Read-outs that look alike come from different tables or passages of the source.

What was measured:
[1] = target: T1, SARS-CoV-2 PLpro (nsp3 1564–1878) (Severe acute respiratory syndrome coronavirus 2, UniProt P0DTD1); assay: biochemical; set-up: FRET-quenched peptide (Pro3) cleavage by PLpro, 10 min pre-incubation, slope over 20 min, normalised to no-compound control; conditions: low concentration screen, read-out: % of control remaining
[2] = target: T1, SARS-CoV-2 PLpro (nsp3 1564–1878); assay: biochemical; set-up: FRET-quenched peptide (Pro3) cleavage by PLpro, 10 min pre-incubation, slope over 20 min, normalised to no-compound control; conditions: high concentration screen, read-out: % of control remaining

Work on `O=C[C@H](Cl)[C@@H](O)[C@H](O)[C@H](O)CO` [2-Chloro-2-deoxy-D-glucose] yielded a remaining activity at 1.25 µM ([1]; Well no.=441) of 103% and a remaining activity at 3.75 µM ([2]; Well no.=441) of 104%.
With `OC[C@H]1O[C@@H](n2cnc3c(NC4CCCC4)nc(Cl)nc32)[C@H](O)[C@@H]1O` [2-Chloro-N6-cyclopentyladenosine] the remaining activity at 1.25 µM ([1]; Well no.=439) was 98.2% and the remaining activity at 3.75 µM ([2]; Well no.=439) was 102%.
With `Nc1nc(Cl)nc2c1ncn2[C@@H]1O[C@H](COP(=O)(O)OP(=O)(O)OP(=O)(O)O)[C@H](O)C1O` (stereo partly drawn) [2-Chloroadenosine triphosphate tetrasodium] the remaining activity at 1.25 µM ([1]; Well no.=535) was 100% and the remaining activity at 3.75 µM ([2]; Well no.=535) was 102%.
In the case of `Nc1nc(Cl)nc2c1ncn2[C@@H]1O[C@H](CO)[C@@H](O)[C@H]1O` [2-Chloroadenosine], the remaining activity at 1.25 µM ([1]; Well no.=274) is reported as 99.4% and the remaining activity at 3.75 µM ([2]; Well no.=274) is reported as 101%.
`CNC(=O)[C@H]1O[C@@H](n2cnc3c(NCc4cccc(I)c4)nc(Cl)nc32)[C@H](O)[C@@H]1O` [2-Cl-IB-MECA] showed a remaining activity at 1.25 µM ([1]; Well no.=6316) of 95% and a remaining activity at 3.75 µM ([2]; Well no.=6316) of 90.2%.
In the case of `NCC(O)C1CCCCCCC1` (stereo not drawn) [2-Cyclooctyl-2-hydroxyethylamine hydrochloride], the remaining activity at 1.25 µM ([1]; Well no.=485) is reported as 106% and the remaining activity at 3.75 µM ([2]; Well no.=485) is reported as 105%.
`O=CC[C@@H](O)[C@H](O)[C@H](O)CO` [2-Deoxy-D-glucose] was tested, and the remaining activity at 1.25 µM ([1]; Well no.=8302) was 100% and the remaining activity at 3.75 µM ([2]; Well no.=8302) was 101%.
`CCCCCCCCCCCCCCC(F)C(=O)O` (stereo not drawn) [2-Fluoropalmitic acid] gave a remaining activity at 1.25 µM ([1]; Well no.=4355) of 99.2% and a remaining activity at 3.75 µM ([2]; Well no.=4355) of 97%.
With `NC(N)=NCC(=O)O` [2-Guanidinoacetic acid] the remaining activity at 1.25 µM ([1]; Well no.=6437) was 103% and the remaining activity at 3.75 µM ([2]; Well no.=6437) was 105%.
Work on `CCC(C)(O)C(=O)O` (stereo not drawn) [2-Hydroxy-2-methylbutanoic acid] yielded a remaining activity at 1.25 µM ([1]; Well no.=6357) of 96.5% and a remaining activity at 3.75 µM ([2]; Well no.=6357) of 93.4%.
`CC(C)C(O)C(=O)O` (stereo not drawn) [2-Hydroxy-3-methylbutanoic acid] showed a remaining activity at 1.25 µM ([1]; Well no.=7503) of 101% and a remaining activity at 3.75 µM ([2]; Well no.=7503) of 98.9%.
`CCCCCCCCCCCCC(O)C(=O)O` (stereo not drawn) [2-Hydroxymyristic acid] gave a remaining activity at 1.25 µM ([1]; Well no.=4353) of 103% and a remaining activity at 3.75 µM ([2]; Well no.=4353) of 102%.
`O=C(O)Cc1ccccc1O` [2-Hydroxyphenylacetic acid] showed a remaining activity at 1.25 µM ([1]; Well no.=6307) of 104% and a remaining activity at 3.75 µM ([2]; Well no.=6307) of 107%.
`NCC(O)(CS(=O)(=O)O)c1ccc(Cl)cc1` (stereo not drawn) [2-Hydroxysaclofen] showed a remaining activity at 1.25 µM ([1]; Well no.=355) of 97.9% and a remaining activity at 3.75 µM ([2]; Well no.=355) of 95.6%.
Work on `COc1ccc2[nH]c(I)c(CCNC(C)=O)c2c1` [2-Iodomelatonin] yielded a remaining activity at 1.25 µM ([1]; Well no.=622) of 99.9% and a remaining activity at 3.75 µM ([2]; Well no.=622) of 99.7%.
Work on `O=C(O)CCC(=O)C(=O)O` [2-Ketoglutaric acid] yielded a remaining activity at 1.25 µM ([1]; Well no.=7061) of 103% and a remaining activity at 3.75 µM ([2]; Well no.=7061) of 98.4%.
In the case of `COc1ccccc1C(=O)O` [2-Methoxybenzoic acid], the remaining activity at 1.25 µM ([1]; Well no.=6583) is reported as 103% and the remaining activity at 3.75 µM ([2]; Well no.=6583) is reported as 101%.
`COc1cc2c(cc1O)CC[C@@H]1[C@@H]2CC[C@]2(C)[C@@H](O)CC[C@@H]12` [2-Methoxyestradiol] gave a remaining activity at 1.25 µM ([1]; Well no.=836) of 105%, a remaining activity at 1.25 µM ([1]; Well no.=6292) of 95.9% and a remaining activity at 3.75 µM ([2]; Well no.=836) of 102%. The remaining activity at 3.75 µM ([2]; Well no.=6292) was 93.3%.
Work on `Cc1[nH]c2ccc(O)cc2c1CCN` [2-Methyl-5-hydroxytryptamine maleate] yielded a remaining activity at 1.25 µM ([1]; Well no.=847) of 102% and a remaining activity at 3.75 µM ([2]; Well no.=847) of 102%.
`CC(CCC(=O)O)C(=O)O` (stereo not drawn) [2-Methylpentanedioic acid] was tested, and the remaining activity at 1.25 µM ([1]; Well no.=6733) was 99.7% and the remaining activity at 3.75 µM ([2]; Well no.=6733) was 105%.
`CC(CC(=O)O)C(=O)O` (stereo not drawn) [2-Methylsuccinic acid] was tested, and the remaining activity at 1.25 µM ([1]; Well no.=6635) was 100% and the remaining activity at 3.75 µM ([2]; Well no.=6635) was 98.3%.
With `Oc1ccc2ccccc2c1` [2-Naphthol] the remaining activity at 1.25 µM ([1]; Well no.=7155) was 103% and the remaining activity at 3.75 µM ([2]; Well no.=7155) was 99.5%.
With `O=C(O)C(=O)Cc1ccccc1` [2-Oxo-3-phenylpropanoic acid] the remaining activity at 1.25 µM ([1]; Well no.=6877) was 109% and the remaining activity at 3.75 µM ([2]; Well no.=6877) was 103%.
`CCC(=O)C(=O)O` [2-Oxobutanoic acid] was tested, and the remaining activity at 1.25 µM ([1]; Well no.=6293) was 106% and the remaining activity at 3.75 µM ([2]; Well no.=6293) was 105%.
In the case of `Nc1nc(Nc2ccccc2)nc2c1ncn2[C@@H]1O[C@H](CO)[C@@H](O)[C@H]1O` [2-Phenylaminoadenosine], the remaining activity at 1.25 µM ([1]; Well no.=1213) is reported as 102% and the remaining activity at 3.75 µM ([2]; Well no.=1213) is reported as 106%.
`CC(C(=O)O)c1ccccc1` (stereo not drawn) [2-Phenylpropionic acid] was tested, and the remaining activity at 1.25 µM ([1]; Well no.=6837) was 94.4% and the remaining activity at 3.75 µM ([2]; Well no.=6837) was 95.3%.
`O=c1cc[nH]c(=S)[nH]1` [2-Thiouracil] showed a remaining activity at 1.25 µM ([1]; Well no.=5325) of 90.5% and a remaining activity at 3.75 µM ([2]; Well no.=5325) of 90.8%.
`CN(C)c1ccccc1CN1CCCN(Cc2ccccc2N(C)C)C1c1ccncc1` [2-[(3-[2-(dimethylamino)benzyl]-2-(4-pyridinyl)tetrahydro-1(2H)-pyrimidinyl)methyl]-N,N-dimethylaniline] was tested, and the remaining activity at 1.25 µM ([1]; Well no.=5454) was 96.1% and the remaining activity at 3.75 µM ([2]; Well no.=5454) was 100%.
`Cc1nc(C(=O)N2CCC[C@H]2Cc2nnc(-c3ccccc3)o2)c(-c2ccccc2F)s1` [2-[((2S)-1-{[5-(2-fluorophenyl)-2-methyl-1,3-thiazol-4-yl]carbonyl}-2-pyrrolidinyl)methyl]-5-phenyl-1,3,4-oxadiazole] gave a remaining activity at 1.25 µM ([1]; Well no.=5406) of 90.5% and a remaining activity at 3.75 µM ([2]; Well no.=5406) of 102%.
Compound `CCCCCCCCc1ccc(CCC(N)(CO)CO)cc1` [2-amino-2-[2-(4-octylphenyl)ethyl]-1,3-propanediol hydrochloride] has a remaining activity at 1.25 µM ([1]; Well no.=6045) of 93.4% and a remaining activity at 3.75 µM ([2]; Well no.=6045) of 95.1%.
With `COc1cc(Br)c(S(=O)(=O)Nc2ccc(Cl)c(O[C@@H]3CCN(C)C3)c2)cc1OC` [2-bromo-N-(4-chloro-3-{[(3R)-1-methyl-3-pyrrolidinyl]oxy}phenyl)-4,5-dimethoxybenzenesulfonamide] the remaining activity at 1.25 µM ([1]; Well no.=5501) was 99.8% and the remaining activity at 3.75 µM ([2]; Well no.=5501) was 105%.
`CCCCCCCCCCCCCCC(Br)C(=O)O` (stereo not drawn) [2-bromohexadecanoic acid] gave a remaining activity at 1.25 µM ([1]; Well no.=5893) of 106% and a remaining activity at 3.75 µM ([2]; Well no.=5893) of 106%.
`CCCCC1=NC2(CCCC2)C(=O)N1Cc1ccc(-c2ccccc2-c2nnn[nH]2)cc1` [2-butyl-3-{[2'-(1H-tetraazol-5-yl)[1,1'-biphenyl]-4-yl]methyl}-1,3-diazaspiro[4.4]non-1-en-4-one] showed a remaining activity at 1.25 µM ([1]; Well no.=5468) of 98% and a remaining activity at 3.75 µM ([2]; Well no.=5468) of 104%.
Work on `O=C(O)c1ccc(-c2c[nH]c3ncc(-c4ccccc4)cc23)cc1C1CCCC1` [2-cyclopentyl-4-(5-phenyl-1H-pyrrolo[2,3-b]pyridin-3-yl)benzoic acid] yielded a remaining activity at 1.25 µM ([1]; Well no.=5864) of 93% and a remaining activity at 3.75 µM ([2]; Well no.=5864) of 94.4%.
With `C[N+](C)(C)CCO` [2-hydroxy-N,N,N-trimethylethanaminium chloride] the remaining activity at 1.25 µM ([1]; Well no.=5483) was 98.3% and the remaining activity at 3.75 µM ([2]; Well no.=5483) was 97.8%.
